Measured values taken from patent US11497813B2, “Bortezomib conjugates and methods using same” (Frank EBETINO et al., priority 2015, dated 2022).

Tested on: UPS activation
Assay: Ub^G76V-GFP reporter cells (GFP+ cells) in osteoclast cultures and on pre-incubated bone slices
Assay type: cell-based, mouse
Details: BM cells from Ub^G76V-GFP mice on bone slices pre-incubated with compound
Protocol: FIG. 5A is a scheme of an exemplary synthesis of compound BP-Btz1. FIG. 5B is a series of images of bone slices pre-incubated with 1 μM BP-Btz1, Btz, or bisphosphonate (BP) overnight. Drug solutions were removed and bone slices were washed with PBS extensively. […] (BM) cells from UB^G76V-GFP mice were cultured on bone slices in the presence of M-CSF and RANKL for 9 days. Top images (a): GFP^+ cells were observed under a fluorescence microscope and GFP signal intensity was quantified. Middle images (b): bone slices were fixed and subjected to TRAP staining for osteoclasts (OCs). OC #/slice were counted. Bottom images (c): cells were removed from slices. Toluidine blue staining was performed and pit areas/slice were counted. FIG. 5C is a series of images of murine BM cells cultured and stained for ALP. FIG. 5D is a series of images of human MSCs cultured and stained for ALP. Murine BM cells and human MSCs were cultured in the OB-inducing medium plus different concentrations of BP-Btz1 or Btz for 4 or 6 days, respectively. Cells were stained for ALP. The ALP^+ areas were measured by Image J. *P<0.05 vs. Btz-treated cells.
1. Ub^G76V-GFP mice in B6 background (Stock #008111, Jax lab) are generated using previously described methods (Lindsten et al., 2003, Nat. Biotech. 21:897-902). The Ub^G76V-GFP transgene was designed with a chicken beta-actin promoter and CMV immediate early enhancer upstream of a GFP fused to a mutant ubiquitin moiety (Ub^G76V), a constitutively active proteasome degradation signal. Following proteasome inhibitor administration, Ub^G76V accumulates and GFP fluorescence is readily apparent. GFP^+ OCs were detected at 4 and 8 hrs after adding Btz to OC cultures, which disappeared at 24 hrs. […] 2. OC formation and resorption assays and data analyses are performed as described herein (FIG. 4) and using previously described methods (Zhang et al., 2014, J. Clin. Invest. 124:3200-3214; Xiu et al., 2014, J. Clin. Invest. 124:297-310). […] The number and area of OCs and resorption pits are assessed. The appearance, intensity and distribution of GFP^+ cells on bone slices and plastic surrounding bone slices during OC formation is observed and recorded. 3. OB differentiation. Third passages of BM stromal cells are used as MPCs, as previously described (Shu et al., 2013, J. Bone Min. Res. 28:1925-1935; Zhang et al., 2014, J. Clin. Invest. 124:3200-3214). MPCs are cultured on plastic plates in OB-inducing medium±BP-Btz conjugates, Btz or BP (0.1-100 nM) for 1-3 wks. Plates are subjected to alkaline phosphatase (ALP) and alizarin red staining, and qPCR analyses. Area of ALP^+ and mineralized bone nodule, and the expression levels of OB marker genes (ALP, osteocalcin, Runx2) are measured. GFP^+ cells during OB differentiation are observed as in OCs. In a parallel experiment, human MSCs (from Lonza) are treated with BP-Btz, Btz, or BP in OB-inducing medium and their effects examined on OB differentiation as show in FIGS. 5C and 5D. 4. Western blot/Ub assays. OCPs or MPCs are treated with a preferred dose of leading BP-Btz, Btz and BP. OCP lysates are subjected to Western blot using α-NF-κB members and TRAF6 Abs. OB lysates are subjected to Western blot with α-ubiquitin, Runx2, or JunB Abs, and Ub assays using UbiQapture matrix (Biomol) to pull down Ub-proteins followed by α-Runx2 and JunB Abs using previously described methods (Zhao et al., 2010, J. Bone Min. Res. 25:1246-1256; Zhao et al., 2011, Stem cells 29:1601-1610).

With NCC(P(=O)(O)O)P(=O)(O)O [BP] the “GFP+ cells on pre-incubated bone slices” value was “not”.
